System: MV-4-11 cells
Experiment: Gene expression microarray analysis (Affymetrix PrimeView) and GSEA
Type: cell-based, human
Design: RFU PODN (11730768_x_at) / Fold change /veh PODN (11730768_x_at) / RFU LINC00158 (11744669_a_at) / Fold change /veh LINC00158 (11744669_a_at) / RFU DUSP10 (11751237_a_at) / Fold change /veh DUSP10 (11751237_a_at) / RFU ID3 (11757404_x_at) / Fold change /veh ID3 (11757404_x_at) / RFU PLEKHG5 (11737974_s_at) / Fold change /veh PLEKHG5 (11737974_s_at) / RFU LRRC4B (11730491_at) / Fold change /veh LRRC4B (11730491_at) / RFU GIMAP4 (11747438_a_at) / Fold change /veh GIMAP4 (11747438_a_at) / RFU KRT8 (11758183_x_at) / Fold change /veh KRT8 (11758183_x_at) / RFU CNN1 (11734310_a_at) / Fold change /veh CNN1 (11734310_a_at) / RFU VPS37D (11726825_at) / Fold change /veh VPS37D (11726825_at) / RFU C10orf10 (11716522_x_at) / Fold change /veh C10orf10 (11716522_x_at) / RFU KIR2DL2 /// KIR2DL4 /// KIR2DL5A /// KIR2DL5B /// KIR2DS1 /// KIR2DS2 /// KIR2DS3 /// KIR2DS4 /// KIR3DL3 /// KIR3DL3 /// KIR3DS1 (11738374_at) / Fold change /veh KIR2DL2 /// KIR2DL4 /// KIR2DL5A /// KIR2DL5B /// KIR2DS1 /// KIR2DS2 /// KIR2DS3 /// KIR2DS4 /// KIR3DL3 /// KIR3DL3 /// KIR3DS1 (11738374_at) / RFU C1QL1 (11718748_at) / Fold change /veh C1QL1 (11718748_at) / RFU TMPRSS4 (11747572_a_at) / Fold change /veh TMPRSS4 (11747572_a_at) / RFU HAMP (11756126_x_at) / Fold change /veh HAMP (11756126_x_at) / RFU RNFT2 (11725882_a_at) / Fold change /veh RNFT2 (11725882_a_at) / RFU NR4A2 (11747474_a_at) / Fold change /veh NR4A2 (11747474_a_at) / RFU ABCC12 (11746883_a_at) / Fold change /veh ABCC12 (11746883_a_at) / RFU TMEM136 (11760407_x_at) / Fold change /veh TMEM136 (11760407_x_at) / RFU CLDN22 /// WWC2 (11732394_at) / Fold change /veh CLDN22 /// WWC2 (11732394_at) / RFU HLA-DPB1 (11760878_x_at) / Fold change /veh HLA-DPB1 (11760878_x_at) / RFU SPINT1 (11716480_a_at) / Fold change /veh SPINT1 (11716480_a_at) / RFU GAP43 (11754022_s_at) / Fold change /veh GAP43 (11754022_s_at) / RFU A4GNT (11735810_at) / Fold change /veh A4GNT (11735810_at) / RFU PRB3 (11715151_x_at) / Fold change /veh PRB3 (11715151_x_at) / RFU TUBB4B (11761932_at) / Fold change /veh TUBB4B (11761932_at) / RFU CAPN14 (11732068_a_at) / Fold change /veh CAPN14 (11732068_a_at) / RFU TMCC2 (11721928_a_at) / Fold change /veh TMCC2 (11721928_a_at) / RFU IRGQ (11745062_a_at) / Fold change /veh IRGQ (11745062_a_at) / RFU FAM174B (11720279_a_at) / Fold change /veh FAM174B (11720279_a_at) / RFU TMPRSS4 (11748680_a_at) / Fold change /veh TMPRSS4 (11748680_a_at) / RFU FAM212B (11763350_a_at) / Fold change /veh FAM212B (11763350_a_at) / RFU PLEKHG5 (11743358_a_at) / Fold change /veh PLEKHG5 (11743358_a_at) / RFU ZSCAN30 (11745921_a_at) / Fold change /veh ZSCAN30 (11745921_a_at) / RFU CMKLR1 (11741424_a_at) / Fold change /veh CMKLR1 (11741424_a_at) / RFU LOC101060620 /// MAPK8IP1 (11723275_at) / Fold change /veh LOC101060620 /// MAPK8IP1 (11723275_at) / RFU SPTSSB (11747773_x_at) / Fold change /veh SPTSSB (11747773_x_at) / RFU PRSS12 (11739890_at) / Fold change /veh PRSS12 (11739890_at) / RFU BIN1 (11741810_x_at) / Fold change /veh BIN1 (11741810_x_at) / RFU WNT11 (11732464_a_at) / Fold change /veh WNT11 (11732464_a_at) / RFU C10orf10 (11716521_a_at) / Fold change /veh C10orf10 (11716521_a_at) / RFU C5orf56 (11738089_at) / Fold change /veh C5orf56 (11738089_at) / RFU CYB561 (11721691_x_at) / Fold change /veh CYB561 (11721691_x_at) / RFU ANKRD19P (11752326_a_at) / Fold change /veh ANKRD19P (11752326_a_at) / RFU OR2T12 /// OR2T33 /// OR2T8 (11738714_s_at) / Fold change /veh OR2T12 /// OR2T33 /// OR2T8 (11738714_s_at) / RFU VCAN (11748164_a_at) / Fold change /veh VCAN (11748164_a_at) / RFU JSRP1 (11732532_at) / Fold change /veh JSRP1 (11732532_at) / RFU KRTAP10-11 (11738290_x_at) / Fold change /veh KRTAP10-11 (11738290_x_at) / RFU MYO3A (11730013_a_at) / Fold change /veh MYO3A (11730013_a_at) / RFU EBF3 (11725865_a_at) / Fold change /veh EBF3 (11725865_a_at) / RFU CAMK2N1 (11719241_x_at) / Fold change /veh CAMK2N1 (11719241_x_at) / RFU C5orf56 (11738088_a_at) / Fold change /veh C5orf56 (11738088_a_at) / RFU OLFML3 (11715873_a_at) / Fold change /veh OLFML3 (11715873_a_at) / RFU LOC100653217 /// NTM (11731650_a_at) / Fold change /veh LOC100653217 /// NTM (11731650_a_at) / RFU MAPK11 (11762145_a_at) / Fold change /veh MAPK11 (11762145_a_at) / RFU FIZ1 (11724087_x_at) / Fold change /veh FIZ1 (11724087_x_at) / RFU OASL (11726364_x_at) / Fold change /veh OASL (11726364_x_at) / RFU SOX15 (11748057_x_at) / Fold change /veh SOX15 (11748057_x_at) / RFU CD79A (11719716_a_at) / Fold change /veh CD79A (11719716_a_at) / RFU HIST1H1D (11736915_at) / Fold change /veh HIST1H1D (11736915_at) / RFU CASKIN2 (11723855_a_at) / Fold change /veh CASKIN2 (11723855_a_at) / RFU LOC730098 (11760151_x_at) / Fold change /veh LOC730098 (11760151_x_at) / RFU OR4N2 (11742367_at) / Fold change /veh OR4N2 (11742367_at) / RFU PRRT2 (11749266_a_at) / Fold change /veh PRRT2 (11749266_a_at) / RFU SNX32 (11753110_a_at) / Fold change /veh SNX32 (11753110_a_at) / RFU CDHR5 (11726645_a_at) / Fold change /veh CDHR5 (11726645_a_at) / RFU RCAN1 (11760418_a_at) / Fold change /veh RCAN1 (11760418_a_at) / RFU FAM167A (11723789_a_at) / Fold change /veh FAM167A (11723789_a_at) / RFU FAM26E (11764081_at) / Fold change /veh FAM26E (11764081_at) / RFU ISYNA1 (11749810_s_at) / Fold change /veh ISYNA1 (11749810_s_at) / RFU ACY1 (11761880_at) / Fold change /veh ACY1 (11761880_at) / RFU 11764098_at / Fold change /veh 11764098_at / RFU SAMD14 (11745864_x_at) / Fold change /veh SAMD14 (11745864_x_at) / RFU NPB (11741838_a_at) / Fold change /veh NPB (11741838_a_at) / RFU TMPRSS6 (11731388_a_at) / Fold change /veh TMPRSS6 (11731388_a_at) / RFU KRTAP10-2 (11738614_at) / Fold change /veh KRTAP10-2 (11738614_at) / RFU ARHGAP8 /// PRR5-ARHGAP8 (11727945_x_at) / Fold change /veh ARHGAP8 /// PRR5-ARHGAP8 (11727945_x_at) / RFU KRTAP5-7 /// NADSYN1 (11734609_at) / Fold change /veh KRTAP5-7 /// NADSYN1 (11734609_at) / RFU RASL12 (11751679_a_at) / Fold change /veh RASL12 (11751679_a_at) / RFU CDKN2B (11736163_a_at) / Fold change /veh CDKN2B (11736163_a_at) / RFU PRF1 (11729649_at) / Fold change /veh PRF1 (11729649_at) / RFU, ZNF638 /// ZNF638-IT1 / Fold change vs veh, ZNF638 /// ZNF638-IT1 / RFU, PANK3 / Fold change vs veh, PANK3 / RFU, SH3YL1 / Fold change vs veh, SH3YL1 / RFU, ZEB2 / Fold change vs veh, ZEB2 / RFU, NRIP1 / Fold change vs veh, NRIP1 / RFU, PTTG1IP / Fold change vs veh, PTTG1IP / RFU, CAPN2 / Fold change vs veh, CAPN2 / RFU, MED14 / Fold change vs veh, MED14 / RFU, SNORA58 / Fold change vs veh, SNORA58 / RFU, C1orf63 / Fold change vs veh, C1orf63 / RFU, LRRFIP1 / Fold change vs veh, LRRFIP1 / RFU, NDUFAF7 / Fold change vs veh, NDUFAF7 / RFU, SLC12A2 / Fold change vs veh, SLC12A2 / RFU, IBTK / Fold change vs veh, IBTK / RFU, ESF1 / Fold change vs veh, ESF1 / Fold change vs veh, TMEM50B / RFU, TAOK1 / Fold change vs veh, TAOK1 / RFU, ACBD3 / Fold change vs veh, ACBD3 / RFU, TMA16 / Fold change vs veh, TMA16 / RFU, RWDD3 / Fold change vs veh, RWDD3 / RFU, BCAT1 / Fold change vs veh, BCAT1 / RFU, EDEM3 / Fold change vs veh, EDEM3 / RFU, TMEM33 / Fold change vs veh, TMEM33 / RFU, WDR75 / Fold change vs veh, WDR75 / RFU, AHCTF1 / Fold change vs veh, AHCTF1 / RFU, TFRC / Fold change vs veh, TFRC / RFU, ZDHHC17 / Fold change vs veh, ZDHHC17 / RFU, NOM1 / Fold change vs veh, NOM1 / RFU, ARL8B / Fold change vs veh, ARL8B / RFU, ZBTB11 / Fold change vs veh, ZBTB11 / RFU, TAMM41 / Fold change vs veh, TAMM41 / RFU, KIAA1704 /// LOC100996395 / Fold change vs veh, KIAA1704 /// LOC100996395 / RFU, ING1 / Fold change vs veh, ING1 / RFU, TRMT61B / Fold change vs veh, TRMT61B / RFU, FUBP3 / Fold change vs veh, FUBP3 / RFU, TP53 / Fold change vs veh, TP53 / RFU, TNKS2 / Fold change vs veh, TNKS2 / RFU, ZFP14 / Fold change vs veh, ZFP14 / RFU, ACTR2 / Fold change vs veh, ACTR2 / RFU, PPP3R1 / Fold change vs veh, PPP3R1 / RFU, PIK3R1 / Fold change vs veh, PIK3R1 / RFU, HNRNPA1 / Fold change vs veh, HNRNPA1 / RFU, RNF170 / Fold change vs veh, RNF170 / RFU, ZNF28 / Fold change vs veh, ZNF28 / RFU, RNGTT / Fold change vs veh, RNGTT / RFU, OGT / Fold change vs veh, OGT / RFU, BRD1 / Fold change vs veh, BRD1 / RFU, MARS / Fold change vs veh, MARS / RFU, ZNF655 / Fold change vs veh, ZNF655 / RFU, FAHD1 / Fold change vs veh, FAHD1 / RFU, BDP1 / Fold change vs veh, BDP1 / RFU, LRRCC1 / Fold change vs veh, LRRCC1 / RFU, ARID1A / Fold change vs veh, ARID1A / RFU, ZNF146 / Fold change vs veh, ZNF146 / RFU, ZNF330 / Fold change vs veh, ZNF330 / RFU, GPN3 / Fold change vs veh, GPN3 / RFU, C9orf123 / Fold change vs veh, C9orf123 / RFU, N4BP2L2 / Fold change vs veh, N4BP2L2 / RFU, ARFIP1 / Fold change vs veh, ARFIP1 / RFU, FAM179B / Fold change vs veh, FAM179B / RFU, BCL10 / Fold change vs veh, BCL10 / RFU, UHRF1BP1L / Fold change vs veh, UHRF1BP1L / RFU, BET1 / Fold change vs veh, BET1 / RFU, CNOT2 / Fold change vs veh, CNOT2 / RFU, ZNF268 / Fold change vs veh, ZNF268 / Fold change vs veh, ZNF507 / RFU, DGCR2 / Fold change vs veh, DGCR2 / RFU, WDSUB1 / Fold change vs veh, WDSUB1 / Fold change vs veh, HSP90B1 /// MIR3652 / RFU, ADSS / Fold change vs veh, ADSS / RFU, GK / Fold change vs veh, GK / RFU, ZNF148 / Fold change vs veh, ZNF148 / RFU, TAF9 / Fold change vs veh, TAF9 / RFU, SLC1A5 / Fold change vs veh, SLC1A5 / RFU, SLMO2 / Fold change vs veh, SLMO2 / RFU, ABCC4 / Fold change vs veh, ABCC4 / RFU, LOC101060439 /// RAP1B / Fold change vs veh, LOC101060439 /// RAP1B / RFU, RFX7 / Fold change vs veh, RFX7 / RFU, GTPBP10 / Fold change vs veh, GTPBP10 / RFU, CNEP1R1 / Fold change vs veh, CNEP1R1 / RFU, BIVM-ERCC5 /// ERCC5 / Fold change vs veh, BIVM-ERCC5 /// ERCC5 / RFU, ILF3 / Fold change vs veh, ILF3 / RFU 11762660_at / Fold change /veh 11762660_at / RFU VCAN (11757783_s_at) / Fold change /veh VCAN (11757783_s_at) / RFU DDX43 (11728927_at) / Fold change /veh DDX43 (11728927_at) / RFU KRT8 (11758188_x_at) / Fold change /veh KRT8 (11758188_x_at) / RFU NKD1 (11759106_at) / Fold change /veh NKD1 (11759106_at) / RFU SRD5A1 (11742802_a_at) / Fold change /veh SRD5A1 (11742802_a_at) / RFU TPSAB1 /// TPSB2 (11721975_s_at) / Fold change /veh TPSAB1 /// TPSB2 (11721975_s_at) / RFU GSTM3 (11746129_a_at) / Fold change /veh GSTM3 (11746129_a_at) / RFU IL23R (11737362_x_at) / Fold change /veh IL23R (11737362_x_at) / RFU TMEM51 (11727254_a_at) / Fold change /veh TMEM51 (11727254_a_at) / RFU PIWIL2 (11732686_x_at) / Fold change /veh PIWIL2 (11732686_x_at) / RFU ORM1 (11744905_x_at) / Fold change /veh ORM1 (11744905_x_at) / RFU CCDC152 (11743942_at) / Fold change /veh CCDC152 (11743942_at) / RFU ECM1 (11717891_a_at) / Fold change /veh ECM1 (11717891_a_at) / RFU IL23R (11748794_a_at) / Fold change /veh IL23R (11748794_a_at) / RFU TNFAIP8L3 (11732012_x_at) / Fold change /veh TNFAIP8L3 (11732012_x_at) / RFU MBOAT4 (11741988_at) / Fold change /veh MBOAT4 (11741988_at) / RFU 11764193_at / Fold change /veh 11764193_at / RFU TMEM53 (11763286_at) / Fold change /veh TMEM53 (11763286_at) / RFU MAGEB2 (11727129_at) / Fold change /veh MAGEB2 (11727129_at) / RFU TMEM200A (11744735_a_at) / Fold change /veh TMEM200A (11744735_a_at) / RFU CCDC152 (11751479_a_at) / Fold change /veh CCDC152 (11751479_a_at) / RFU FAM211A (11726209_a_at) / Fold change /veh FAM211A (11726209_a_at) / RFU RGS16 (11746705_a_at) / Fold change /veh RGS16 (11746705_a_at) / RFU VCAN (11755009_s_at) / Fold change /veh VCAN (11755009_s_at) / RFU RHOB (11743442_s_at) / Fold change /veh RHOB (11743442_s_at) / RFU RGS16 (11720943_a_at) / Fold change /veh RGS16 (11720943_a_at) / RFU RGS16 (11720944_at) / Fold change /veh RGS16 (11720944_at) / RFU, VPS4B / Fold change vs veh, VPS4B / RFU, CREB1 / Fold change vs veh, CREB1 / RFU, DNAJC13 / Fold change vs veh, DNAJC13 / RFU, GNAQ / Fold change vs veh, GNAQ / RFU, CDK5R1 / Fold change vs veh, CDK5R1 / RFU, ZRANB3 / Fold change vs veh, ZRANB3 / RFU, CUL4A / Fold change vs veh, CUL4A / RFU, CCNY / Fold change vs veh, CCNY / RFU, UFL1 / Fold change vs veh, UFL1 / RFU, COG3 / Fold change vs veh, COG3 / RFU, DIAPH2 / Fold change vs veh, DIAPH2 / RFU, SKA2 / Fold change vs veh, SKA2 / RFU, AFF3 / Fold change vs veh, AFF3 / RFU, LMF1 / Fold change vs veh, LMF1 / RFU, IPO11 / Fold change vs veh, IPO11 / RFU, DFFB / Fold change vs veh, DFFB / RFU, FOXP1 / Fold change vs veh, FOXP1 / RFU, CARD8 / Fold change vs veh, CARD8 / RFU, STRN3 / Fold change vs veh, STRN3 / RFU, ADK / Fold change vs veh, ADK / RFU, RASSF2 / Fold change vs veh, RASSF2 / RFU, WIPF1 / Fold change vs veh, WIPF1 / RFU, LARP1B / Fold change vs veh, LARP1B / RFU, RASA1 / Fold change vs veh, RASA1 / RFU, RB1 / Fold change vs veh, RB1 / RFU, PPFIA1 / Fold change vs veh, PPFIA1 / RFU, MAT2A / Fold change vs veh, MAT2A / RFU, CCT5 / Fold change vs veh, CCT5 / RFU, WDR92 / Fold change vs veh, WDR92 / RFU, CUX1 / Fold change vs veh, CUX1 / RFU, TTC7A / Fold change vs veh, TTC7A / RFU, TMEM135 / Fold change vs veh, TMEM135 / RFU, DEPTOR / Fold change vs veh, DEPTOR / RFU, CPM / Fold change vs veh, CPM / RFU, DNAJB6 / Fold change vs veh, DNAJB6 / RFU, CACNA2D3 / Fold change vs veh, CACNA2D3 / RFU, DTX4 / Fold change vs veh, DTX4 / RFU, TFCP2 / Fold change vs veh, TFCP2 / RFU, GMCL1 /// GMCL1P1 / Fold change vs veh, GMCL1 /// GMCL1P1 / RFU, AEBP2 / Fold change vs veh, AEBP2 / RFU, SNHG1 /// SNORD22 /// SNORD25 /// SNORD26 /// SNORD27 /// SNORD28 /// SNORD29 /// SNORD31 / Fold change vs veh, SNHG1 /// SNORD22 /// SNORD25 /// SNORD26 /// SNORD27 /// SNORD28 /// SNORD29 /// SNORD31 / Fold change (Aza/veh), C12orf56 (ProbeSet 11735607_a_at) / Fold change (ACY-1035/veh), C12orf56 (ProbeSet 11735607_a_at) / Fold change (Aza/veh), FGFR1OP (ProbeSet 11751329_s_at) / Fold change (ACY-1035/veh), FGFR1OP (ProbeSet 11751329_s_at) / Fold change (Aza/veh), VPS36 (ProbeSet 11739960_a_at) / Fold change (ACY-1035/veh), VPS36 (ProbeSet 11739960_a_at) / RFU SYPL1 (11715823_x_at) / Fold change /veh SYPL1 (11715823_x_at) / RFU IGFBP7 (11715501_s_at) / Fold change /veh IGFBP7 (11715501_s_at) / RFU REEP3 (11722064_at) / Fold change /veh REEP3 (11722064_at) / RFU IGLL1 (11728026_x_at) / Fold change /veh IGLL1 (11728026_x_at): dose or concentration left out as unconfirmed
Conditions: ProbeSet 11755159_a_at; LIST D

Nc1ccc(-c2cccs2)cc1NC(=O)c1ccc2c(c1)cc(C1CC1)n2CCN1CCOCC1 [ACY-1035]
Fold change vs veh, COG3: 0.96

From article PMC5218480 (PLoS ONE, 2017)
